Results: patent US5231089A, “Method of improving oral bioavailability of carbamazepine” (priority 1992, dated 1993)
Like-named read-outs stand apart in the source and are kept apart here.

Legend:
[1] = dog, in vivo
[2] = cited from earlier work; for Absolute bioavailability: 100 mg 2% oral suspension vs intravenous infusion (Gerardin et al)
[3] = test system: generalized tonic-clonic seizures; conditions: human, in vivo; cited from earlier work
[4] = cited from earlier work; for solubilization in water: 15 mg/mL hydroxypropyl-β-cyclodextrin (Uekama et al)
[5] = test system: maximal electroshock seizure (MES) test models; conditions: in vivo; cited from earlier work
[6] = cited from earlier work
[7] = with water-soluble β-cyclodextrin epichlorohydrin polymer; cited from earlier work
[8] = in vivo; cited from earlier work
[9] = healthy human subjects (Neuvonen et al)

In the case of `NC(=O)N1c2ccccc2C=Cc2ccccc21` [TEGRETOL], the “coefficient of variation around the AUC” value [1] is reported as 78% and the “coefficient of variation of Cmax” value [1] is reported as 71%.

In the case of `NC(=O)N1c2ccccc2C=Cc2ccccc21` [carbamazepine, 5H-dibenz[b,f]azepine-5-carboxamide], the “total bioavailability (area under the curve)” value ([2]; Australian tablets 1977 vs since 1980 (Eadie et al)) is listed as “no significant difference in total bioavailability”, the “oral absorption, adequacy” value ([2]; Goodman and Gilman) is listed as “adequate” and the “plasma levels, 200 or 400 mg tablets” value ([2]; epileptic patients (Monaco et al)) is listed as “no difference in plasma levels”. The “absorption, rectal versus oral” value [2, 9] was “significantly slower”, the “total bioavailability, rectal versus oral” value [2, 9] was “similar” and the “bioavailability from the oral suspension versus intravenous” value ([2]; healthy male volunteers (Gerardin et al)) was “equivalent”. The oral absorption ([2]; rate/regularity, in words) was “slow and somewhat erratic”, the Absolute bioavailability ([2]; subject 1) was 102.3% and the Absolute bioavailability ([2]; subject 2) was 100.1%. For the same compound, the “efficacy in generalized tonic-clonic seizures (grand mal)” value [3] was “proven efficacy”, the “water solubility of carbamazepine” value ([4]; no cyclodextrin) was “extremely poor water solubility” and the “effectiveness in MES test models” value [5] was “effective”. For the same compound, the “gingival hypertropy, hirsutism, acne” value ([6]; effects associated with phenytoin) was “does not precipitate”, the Therapeutic plasma levels ([6]; human, in vivo) was 4 to 10 µg/mL and the “level at which diplopia, dizziness, drowsiness and ataxia occur” value ([6]; human, in vivo) was “above 6 μg/mL”. The sedation ([6]; human, in vivo) was “less sedating” and the “serum level at which nystagmus may occur” value ([6]; human, in vivo) was “below the therapeutic range”.

In the case of `CCCCCCNC(=O)n1cc(F)c(=O)[nH]c1=O` [carmofur], the solubilization in water [4] is listed as “improved solubilization”.

In the case of `C[C@H]1O[C@@H](O[C@H]2[C@@H](O)C[C@H](O[C@H]3[C@@H](O)C[C@H](O[C@H]4CC[C@@]5(C)[C@H](CC[C@@H]6[C@@H]5C[C@@H](O)[C@]5(C)[C@@H](C7=CC(=O)OC7)CC[C@]65O)C4)O[C@@H]3C)O[C@@H]2C)C[C@H](O)[C@@H]1O` [digoxin], the solubilization in water [4] is given as “improved solubilization”.

For `CC(C(=O)O)c1ccc(-c2ccccc2)c(F)c1` (stereo not shown) [flurbiprofen], the solubilization in water [4] is given as “improved solubilization”.

For `COc1ccc2c(c1)c(CC(=O)O)c(C)n2C(=O)c1ccc(Cl)cc1` [indomethacin], the solubilization in water [4] is listed as “improved solubilization”.

In the case of `O=C1NC(=O)C(c2ccccc2)(c2ccccc2)N1` [phenytoin], the dissolution and absorption [7] is listed as “Improvements” and the solubilization in water [4] is listed as “improved solubilization”.

For `C[C@]12C=CC(=O)C=C1CC[C@@H]1[C@@H]2[C@@H](O)C[C@@]2(C)[C@H]1CC[C@]2(O)C(=O)CO` [prednisolone], the solubilization in water [4] is given as “improved solubilization”.

In the case of `CC(=O)[C@H]1CC[C@H]2[C@@H]3CCC4=CC(=O)CC[C@]4(C)[C@H]3CC[C@]12C` [progesterone], the solubilization in water [4] is given as “improved solubilization”.

In the case of `C[C@]12CC[C@H]3[C@@H](CCC4=CC(=O)CC[C@@]43C)[C@@H]1CC[C@@H]2O` [testosterone], the solubilization in water [4] is listed as “improved solubilization”.

In the case of `OC[C@H]1O[C@@H]2O[C@H]3[C@H](O)[C@@H](O)[C@@H](O[C@H]4[C@H](O)[C@@H](O)[C@@H](O[C@H]5[C@H](O)[C@@H](O)[C@@H](O[C@H]6[C@H](O)[C@@H](O)[C@@H](O[C@H]7[C@H](O)[C@@H](O)[C@@H](O[C@H]8[C@H](O)[C@@H](O)[C@@H](O[C@H]1[C@H](O)[C@H]2O)O[C@@H]8CO)O[C@@H]7CO)O[C@@H]6CO)O[C@@H]5CO)O[C@@H]4CO)O[C@@H]3CO` [β-cyclodextrin], the aqueous solubility ([4]; 25° C.) is listed as “about 1.8 % w/v” and the nephrotoxicity [8] is listed as “nephrotoxicity”.

For `OC[C@H]1O[C@@H]2O[C@H]3[C@H](O)[C@@H](O)[C@@H](O[C@H]4[C@H](O)[C@@H](O)[C@@H](O[C@H]5[C@H](O)[C@@H](O)[C@@H](O[C@H]6[C@H](O)[C@@H](O)[C@@H](O[C@H]7[C@H](O)[C@@H](O)[C@@H](O[C@H]8[C@H](O)[C@@H](O)[C@@H](O[C@H]9[C@H](O)[C@@H](O)[C@@H](O[C@H]1[C@H](O)[C@H]2O)O[C@@H]9CO)O[C@@H]8CO)O[C@@H]7CO)O[C@@H]6CO)O[C@@H]5CO)O[C@@H]4CO)O[C@@H]3CO` [γ-cyclodextrin], the “effect on the water solubility of carbamazepine” value ([4]; Brewster et al) is given as “significantly enhance”.
